Data: patent US20060069132A1, “Azolecarboxamide herbicides” (priority 2004, published 2006)

What was measured:
rice = experiment: Test B flooded paddy test; format: in vivo, Oryza sativa; details: 1000 g ai/ha, visual rating, scale 0 to 100 (0 no effect, 100 complete control), 13 to 15 days
Summary of the method: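 Each value is a visual 0–100 response rating taken against controls 13 to 15 days after treatment in the greenhouse. Plants received formulated chemical postemergence at the 1- to 4-leaf stage or, in flooded paddy, at the 2-leaf stage.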

wheat = experiment: Test B postemergence herbicide test; format: in vivo, Triticum aestivum; parameters: key to Wheat plant response rating: 0 = no effect, 100 = complete control; details: postemergence, visual rating, scale 0 (no effect) to 100 (complete control)
Summary of the method: (§1)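 Scale 0–100: zero equals no visible effect, 100 complete control, judged by eye relative to controls. Timing: 13 to 15 days in greenhouse post-treatment. Growth stage at spraying: two leaves (paddy) or one to four leaves, 2–18 cm (postemergence).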

giant foxtail = experiment: Test B pre-/postemergence herbicide test; format: in vivo, Setaria faberi; details: for Foxtail, Giant plant response rating (0 to 100 scale) / Plant response rating, Foxtail, Giant: preemergence; for Foxtail, Giant plant response rating: postemergence, scale 0 (no effect) to 100 (complete control)
Summary of the method: (§2)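 Evaluation is visual, comparing treated with control plants on a scale where 0 means no effect and 100 means full control. Treatments were preemergence, or postemergence on seedlings 2–18 cm tall, and held 13–15 days in the greenhouse.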

[1] = system: small flower umbrella sedge; experiment: Test B flooded paddy test; format: in vivo, Cyperus difformis; details: 1000 g ai/ha, visual rating, scale 0 to 100 (0 no effect, 100 complete control), 13 to 15 days
Summary of the method: (§3)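 Postemergence plants were sprayed with formulated test chemicals at 2 to 18 cm height (1- to 4-leaf stage); paddy species were grown to the 2-leaf stage. After 13 to 15 days in a greenhouse, injury was rated visually against untreated controls on a 0–100 scale (0 = no effect, 100 = complete control).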

barnyardgrass = experiment: Test B flooded paddy test; format: in vivo, Echinochloa crus-galli; details: 1000 g ai/ha, visual rating, scale 0 to 100 (0 no effect, 100 complete control), 13 to 15 days
Summary of the method: as §3

wild oat = experiment: Test B postemergence herbicide test; format: in vivo, Avena fatua; details: postemergence, visual rating, scale 0 (no effect) to 100 (complete control)
Summary of the method: as §1

blackgrass = experiment: Test B postemergence herbicide test; format: in vivo, Alopecurus myosuroides; details: postemergence, visual rating, scale 0 (no effect) to 100 (complete control)
Summary of the method: as §3

corn = experiment: Test B pre-/postemergence herbicide test; format: in vivo, Zea mays; details: for Corn plant response rating (0 to 100 scale) / Plant response rating, Corn: preemergence; for Corn plant response rating: postemergence, scale 0 (no effect) to 100 (complete control)
Summary of the method: as §2

morningglory = experiment: Test B pre-/postemergence herbicide test; format: in vivo, Ipomoea coccinea; details: for Morningglory plant response rating (0 to 100 scale) / Plant response rating, Morningglory: preemergence; for Morningglory plant response rating: postemergence, scale 0 (no effect) to 100 (complete control)
Summary of the method: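 Seeds were planted and treated preemergence with compounds formulated in a non-phytotoxic solvent mixture containing surfactant, while plants at the 1- to 4-leaf stage (2 to 18 cm) received postemergence sprays. Flooded paddy plants were grown to the 2-leaf stage. After 13 to 15 days in a greenhouse, injury was visually rated 0–100 against untreated controls.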

ducksalad = experiment: Test B flooded paddy test; format: in vivo, Heteranthera limosa; details: 1000 g ai/ha, visual rating, scale 0 to 100 (0 no effect, 100 complete control), 13 to 15 days
Summary of the method: as §3

lambsquarters = experiment: Test B pre-/postemergence herbicide test; format: in vivo, Chenopodium album; details: for Lambsquarters plant response rating (0 to 100 scale) / Plant response rating, Lambsquarters: preemergence; for Lambsquarters plant response rating: postemergence, scale 0 (no effect) to 100 (complete control)
Summary of the method: as §2

large crabgrass = experiment: Test B pre-/postemergence herbicide test; format: in vivo, Digitaria sanguinalis; details: for Crabgrass, Large plant response rating (0 to 100 scale) / Plant response rating, Crabgrass, Large: preemergence; for Crabgrass, Large plant response rating: postemergence, scale 0 (no effect) to 100 (complete control)
Summary of the method: as §2

pigweed = experiment: Test B pre-/postemergence herbicide test; format: in vivo, Amaranthus retroflexus; details: for Pigweed plant response rating (0 to 100 scale) / Plant response rating, Pigweed: preemergence; for Pigweed plant response rating: postemergence, scale 0 (no effect) to 100 (complete control)
Summary of the method: as §2

velvetleaf = experiment: Test B pre-/postemergence herbicide test; format: in vivo, Abutilon theophrasti; details: for Velvetleaf plant response rating (0 to 100 scale) / Plant response rating, Velvetleaf: preemergence; for Velvetleaf plant response rating: postemergence, scale 0 (no effect) to 100 (complete control)
Summary of the method: as §2

Surinam grass = experiment: Test B pre-/postemergence herbicide test; format: in vivo, Urochloa decumbens; details: for Surinam Grass plant response rating (0 to 100 scale) / Plant response rating, Surinam Grass: preemergence; for Surinam Grass plant response rating: postemergence, scale 0 (no effect) to 100 (complete control)
Summary of the method: as §2

[2] = 125 g ai/ha, 0 = no effect, 100 = complete control
[3] = 500 g ai/ha, visual rating 0-100, 0 no effect, 100 complete control
[4] = 500 g ai/ha, visual rating, 0 = no effect, 100 = complete control

Q: How did the “Rice plant response rating” value (rice) turn out when CCc1nc(C(C)(C)C)sc1C(=O)Nc1cccc(C(=O)NCC2CC2)c1 [Compound 212] was run?
A: 70

Q: What about the “Wheat plant response rating” value (wheat; 125 g ai/ha) of the same compound?
A: 10

Q: And the “Wheat plant response rating” value (wheat; 500 g ai/ha)?
A: 20

Q: What about the “Foxtail, Giant plant response rating (0 to 100 scale)” value (giant foxtail; [2]) of the same compound?
A: 70

Q: And the “Plant response rating, Foxtail, Giant” value (giant foxtail; [3])?
A: 100

Q: And the “Foxtail, Giant plant response rating” value (giant foxtail; 125 g ai/ha, visual rating)?
A: 10

Q: And the “Foxtail, Giant plant response rating” value (giant foxtail; 500 g ai/ha, visual rating)?
A: 40

Q: And the “Sedge, Umbrella plant response rating” value [1]?
A: 70

Q: What about the “Barnyardgrass plant response rating” value (barnyardgrass) of the same compound?
A: 50

Q: What about the “Oat, Wild plant response rating” value (wild oat; 125 g ai/ha) of the same compound?
A: 20

Q: And the “Oat, Wild plant response rating” value (wild oat; 500 g ai/ha)?
A: 20

Q: What about the “Blackgrass plant response rating” value (blackgrass; 125 g ai/ha) of the same compound?
A: 10

Q: What about the “Blackgrass plant response rating” value (blackgrass; 500 g ai/ha) of the same compound?
A: 20

Q: What about the “Corn plant response rating (0 to 100 scale)” value (corn; [2]) of the same compound?
A: 10

Q: And the “Plant response rating, Corn” value (corn; [3])?
A: 30

Q: What about the “Corn plant response rating” value (corn; 125 g ai/ha, visual rating) of the same compound?
A: 20

Q: What about the “Corn plant response rating” value (corn; 500 g ai/ha, visual rating) of the same compound?
A: 40

Q: What about the “Morningglory plant response rating (0 to 100 scale)” value (morningglory; [2]) of the same compound?
A: 0

Q: And the “Plant response rating, Morningglory” value (morningglory; [3])?
A: 60

Q: What about the “Morningglory plant response rating” value (morningglory; 125 g ai/ha, visual rating) of the same compound?
A: 10

Q: What about the “Morningglory plant response rating” value (morningglory; 500 g ai/ha, visual rating) of the same compound?
A: 50

Q: And the “Ducksalad plant response rating” value (ducksalad)?
A: 80

Q: What about the “Lambsquarters plant response rating (0 to 100 scale)” value (lambsquarters; [2]) of the same compound?
A: 100

Q: And the “Plant response rating, Lambsquarters” value (lambsquarters; [3])?
A: 100

Q: What about the “Lambsquarters plant response rating” value (lambsquarters; 125 g ai/ha, visual rating) of the same compound?
A: 90

Q: And the “Lambsquarters plant response rating” value (lambsquarters; 500 g ai/ha, visual rating)?
A: 100

Q: What about the “Crabgrass, Large plant response rating (0 to 100 scale)” value (large crabgrass; [2]) of the same compound?
A: 60

Q: And the “Plant response rating, Crabgrass, Large” value (large crabgrass; [3])?
A: 100

Q: And the “Crabgrass, Large plant response rating” value (large crabgrass; 125 g ai/ha, visual rating)?
A: 10

Q: And the “Crabgrass, Large plant response rating” value (large crabgrass; 500 g ai/ha, visual rating)?
A: 10

Q: What about the “Pigweed plant response rating (0 to 100 scale)” value (pigweed; [2]) of the same compound?
A: 100

Q: And the “Plant response rating, Pigweed” value (pigweed; [3])?
A: 100

Q: And the “Pigweed plant response rating” value (pigweed; 125 g ai/ha, visual rating)?
A: 60

Q: What about the “Pigweed plant response rating” value (pigweed; 500 g ai/ha, visual rating) of the same compound?
A: 90

Q: What about the “Velvetleaf plant response rating (0 to 100 scale)” value (velvetleaf; [2]) of the same compound?
A: 10

Q: What about the “Plant response rating, Velvetleaf” value (velvetleaf; [3]) of the same compound?
A: 80

Q: What about the “Velvetleaf plant response rating” value (velvetleaf; 125 g ai/ha, visual rating) of the same compound?
A: 50

Q: What about the “Velvetleaf plant response rating” value (velvetleaf; 500 g ai/ha, visual rating) of the same compound?
A: 70

Q: What about the “Surinam Grass plant response rating (0 to 100 scale)” value (Surinam grass; [2]) of the same compound?
A: 50

Q: What about the “Plant response rating, Surinam Grass” value (Surinam grass; [3]) of the same compound?
A: 70

Q: And the “Surinam Grass plant response rating” value (Surinam grass; 125 g ai/ha, visual rating)?
A: 30

Q: What about the “Surinam Grass plant response rating” value (Surinam grass; 500 g ai/ha, visual rating) of the same compound?
A: 60

Q: What does the source list for CCc1nc(C(C)(C)C)sc1C(=O)Nc1cccc(C(=O)NC(C)(C)C)n1 [Compound 216]?
A: Rice plant response rating (rice): 30; Wheat plant response rating (wheat; 125 g ai/ha): 0; Wheat plant response rating (wheat; 500 g ai/ha): 10; Foxtail, Giant plant response rating (0 to 100 scale) (giant foxtail; [2]): 0; Plant response rating, Foxtail, Giant (giant foxtail; [4]): 60; Foxtail, Giant plant response rating (giant foxtail; 125 g ai/ha, visual rating): 0; Foxtail, Giant plant response rating (giant foxtail; 500 g ai/ha, visual rating): 20; Sedge, Umbrella plant response rating [1]: 90; Barnyardgrass plant response rating (barnyardgrass): 20; Oat, Wild plant response rating (wild oat; 125 g ai/ha): 0; Oat, Wild plant response rating (wild oat; 500 g ai/ha): 0; Blackgrass plant response rating (blackgrass; 125 g ai/ha): 0; Blackgrass plant response rating (blackgrass; 500 g ai/ha): 0; Corn plant response rating (0 to 100 scale) (corn; [2]): 0; Plant response rating, Corn (corn; [4]): 0; Corn plant response rating (corn; 125 g ai/ha, visual rating): 0; Corn plant response rating (corn; 500 g ai/ha, visual rating): 10; Morningglory plant response rating (0 to 100 scale) (morningglory; [2]): 0; Plant response rating, Morningglory (morningglory; [4]): 0; Morningglory plant response rating (morningglory; 125 g ai/ha, visual rating): 0; Morningglory plant response rating (morningglory; 500 g ai/ha, visual rating): 0; Ducksalad plant response rating (ducksalad): 80; Lambsquarters plant response rating (0 to 100 scale) (lambsquarters; [2]): 90; Plant response rating, Lambsquarters (lambsquarters; [4]): 100; Lambsquarters plant response rating (lambsquarters; 125 g ai/ha, visual rating): 0; Lambsquarters plant response rating (lambsquarters; 500 g ai/ha, visual rating): 0; Crabgrass, Large plant response rating (0 to 100 scale) (large crabgrass; [2]): 0; Plant response rating, Crabgrass, Large (large crabgrass; [4]): 40; Crabgrass, Large plant response rating (large crabgrass; 125 g ai/ha, visual rating): 0; Crabgrass, Large plant response rating (large crabgrass; 500 g ai/ha, visual rating): 0; Pigweed plant response rating (0 to 100 scale) (pigweed; [2]): 0; Plant response rating, Pigweed (pigweed; [4]): 90; Pigweed plant response rating (pigweed; 125 g ai/ha, visual rating): 0; Pigweed plant response rating (pigweed; 500 g ai/ha, visual rating): 20; Velvetleaf plant response rating (0 to 100 scale) (velvetleaf; [2]): 0; Plant response rating, Velvetleaf (velvetleaf; [4]): 0; Velvetleaf plant response rating (velvetleaf; 125 g ai/ha, visual rating): 0; Velvetleaf plant response rating (velvetleaf; 500 g ai/ha, visual rating): 60; Surinam Grass plant response rating (0 to 100 scale) (Surinam grass; [2]): 0; Plant response rating, Surinam Grass (Surinam grass; [4]): 70; Surinam Grass plant response rating (Surinam grass; 125 g ai/ha, visual rating): 0; Surinam Grass plant response rating (Surinam grass; 500 g ai/ha, visual rating): 20
